The Kinase Knowledgebase extract (Sharma et al. 2016)

What was measured:
[1] = target: EGFR (human) (UniProt P00533)
[2] = target: EGFR (human) (UniProt P00533); details: a431

EGFR (human), sequence (P00533 whole entry, looked up): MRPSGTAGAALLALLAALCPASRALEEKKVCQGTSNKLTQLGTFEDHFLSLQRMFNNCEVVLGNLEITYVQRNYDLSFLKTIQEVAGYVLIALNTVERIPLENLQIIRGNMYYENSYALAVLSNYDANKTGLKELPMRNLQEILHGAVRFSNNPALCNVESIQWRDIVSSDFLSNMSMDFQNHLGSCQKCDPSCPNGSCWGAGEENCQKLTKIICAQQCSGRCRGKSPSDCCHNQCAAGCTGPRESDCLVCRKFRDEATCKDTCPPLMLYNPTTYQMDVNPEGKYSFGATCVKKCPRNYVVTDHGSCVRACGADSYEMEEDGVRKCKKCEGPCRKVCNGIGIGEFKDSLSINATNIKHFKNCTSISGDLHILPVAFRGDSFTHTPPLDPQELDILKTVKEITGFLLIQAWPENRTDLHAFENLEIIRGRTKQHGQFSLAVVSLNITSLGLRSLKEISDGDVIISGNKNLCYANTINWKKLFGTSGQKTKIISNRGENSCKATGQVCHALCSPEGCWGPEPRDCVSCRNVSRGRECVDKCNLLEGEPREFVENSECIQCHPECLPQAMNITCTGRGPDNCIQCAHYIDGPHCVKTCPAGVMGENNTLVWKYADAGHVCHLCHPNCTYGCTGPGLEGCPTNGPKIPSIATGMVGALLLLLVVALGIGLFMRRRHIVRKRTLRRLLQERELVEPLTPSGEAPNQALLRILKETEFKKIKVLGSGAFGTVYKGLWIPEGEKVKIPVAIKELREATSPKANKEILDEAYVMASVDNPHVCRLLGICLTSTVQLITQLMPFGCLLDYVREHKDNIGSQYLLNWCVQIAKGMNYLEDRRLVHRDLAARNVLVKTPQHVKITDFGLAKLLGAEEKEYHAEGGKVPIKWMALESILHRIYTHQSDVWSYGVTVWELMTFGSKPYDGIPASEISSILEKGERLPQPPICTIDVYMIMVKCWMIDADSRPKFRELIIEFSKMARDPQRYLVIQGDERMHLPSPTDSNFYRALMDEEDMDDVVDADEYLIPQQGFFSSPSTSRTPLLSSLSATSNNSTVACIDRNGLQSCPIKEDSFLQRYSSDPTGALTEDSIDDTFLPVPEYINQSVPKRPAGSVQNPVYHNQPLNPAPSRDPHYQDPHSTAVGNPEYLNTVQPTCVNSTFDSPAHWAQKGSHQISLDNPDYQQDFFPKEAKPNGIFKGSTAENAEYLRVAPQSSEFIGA

SMILES | IC50 [1] | IC50 [2]
OC(CNC1CC1)Cn1ccc(-c2ccc3ncnc(Nc4ccc5c(cnn5Cc5cccc(F)c5)c4)c3c2)c1 (stereo not drawn) | 12 nM | 356 nM
Fc1cccc(COc2ccc(Nc3ncnc4ccc(-c5ccn(CCN6CCCC6)c5)cc34)cc2Cl)c1 | 4 nM | 40 nM
CS(=O)(=O)CCN1CCOC(Cn2ccc(-c3ccc4ncnc(Nc5ccc6c(cnn6Cc6cccc(F)c6)c5)c4c3)c2)C1 (stereo not drawn) | 236 nM | 572 nM
CS(=O)(=O)N1CCOC(Cn2ccc(-c3ccc4ncnc(Nc5ccc6c(cnn6Cc6cccc(F)c6)c5)c4c3)c2)C1 (stereo not drawn) | 257 nM | 243 nM
CN1CCN(CCNC(=O)c2cn(-c3ccc4ncnc(Nc5ccc(OCc6ccccn6)c(Cl)c5)c4c3)cc2CCO)CC1 | 108 nM | 120 nM
O=C(NCCN1CCCC1)c1cn(-c2ccc3ncnc(Nc4ccc(OCc5cccc(F)c5)c(Cl)c4)c3c2)cc1CCO | 9 nM | 160 nM
CS(=O)(=O)CCNCc1ccn(-c2ccc3ncnc(Nc4ccc(OCc5cccc(F)c5)c(Cl)c4)c3c2)c1 | 50 nM | 780 nM
CCN(CC)CCNC(=O)c1cn(-c2ccc3ncnc(Nc4ccc(OCc5cccc(F)c5)c(Cl)c4)c3c2)cc1CCO | 3.6 nM | 680 nM
O=C1OCCc2cn(-c3ccc4ncnc(Nc5ccc(OCc6ccccn6)c(Cl)c5)c4c3)cc21 | 8 nM | 810 nM
Fc1cccc(COc2ccc(Nc3ncnc4ccc(-c5ccn(CCCN6CCN(c7cccc(Cl)c7)CC6)c5)cc34)cc2Cl)c1 | 32 nM | 290 nM
O=C(NCCN1CCOCC1)c1cn(-c2ccc3ncnc(Nc4ccc(OCc5cccc(F)c5)c(Cl)c4)c3c2)cc1CCO | 20 nM | 2360 nM
CN1CCN(C(=O)Cn2ccc(-c3ccc4ncnc(Nc5ccc(OCc6cccc(F)c6)c(Cl)c5)c4c3)c2)CC1 | 6 nM | 298 nM
CCN(CC)CCNCc1cccn1-c1ccc2ncnc(Nc3ccc(OCc4cccc(F)c4)c(Cl)c3)c2c1 | 22.5 nM | 770 nM
O[C@@H](CN1CCOCC1)Cn1ccc(-c2ccc3ncnc(Nc4ccc(OCc5cccc(F)c5)c(Cl)c4)c3c2)c1 | 31 nM | 320 nM
O=C(NCCN1CCOCC1)c1cn(-c2ccc3ncnc(Nc4ccc(OCc5ccccn5)c(Cl)c4)c3c2)cc1CCO | 30 nM | 25 nM
O=C(Cn1ccc(-c2ccc3ncnc(Nc4ccc(OCc5cccc(F)c5)c(Cl)c4)c3c2)c1)N[C@H]1CC[C@H](O)CC1 | 263 nM | 327 nM
CCN(CC)CCNC(=O)c1cn(-c2ccc3ncnc(Nc4ccc(OCc5ccccn5)c(Cl)c4)c3c2)cc1CCO | 25 nM | 8 nM
O=S1(=O)CCC(O)(CNCc2ccn(-c3ccc4ncnc(Nc5ccc(OCc6cccc(F)c6)c(Cl)c5)c4c3)c2)CC1 | 7 nM | 30 nM
OCC(O)Cn1ccc(-c2ccc3ncnc(Nc4ccc(OCc5cccc(F)c5)c(Cl)c4)c3c2)c1 (stereo not drawn) | 27 nM | 1390 nM
CN(C)[C@@H]1CCN(C(=O)Cn2ccc(-c3ccc4ncnc(Nc5ccc(OCc6cccc(F)c6)c(Cl)c5)c4c3)c2)C1 | 133 nM | 2590 nM
CC(=O)N[C@@H]1CCN(C(=O)Cn2ccc(-c3ccc4ncnc(Nc5ccc(OCc6cccc(F)c6)c(Cl)c5)c4c3)c2)C1 | 129 nM | 626 nM
OCCn1ccc(-c2ccc3ncnc(Nc4ccc(OCc5cccc(F)c5)c(Cl)c4)c3c2)c1 | 52 nM | 40 nM
O=C(Cn1ccc(-c2ccc3ncnc(Nc4ccc(OCc5cccc(F)c5)c(Cl)c4)c3c2)c1)N1CCC(N2CCCCC2)CC1 | 79 nM | 295 nM
Fc1cccc(COc2ccc(Nc3ncnc4ccc(-c5ccn(CCN6CCCCCC6)c5)cc34)cc2Cl)c1 | 27 nM | 657 nM
